# Tests used:
# enterovirus [1] = experiment: case report Example 10, acute enterovirus infection of the gastrointestinal tract; type: in vivo, human
# Text: A person developed subacute onset of severe fatigue, nausea, anorexia and progressive weight loss of 20 pounds following an upper respiratory infection.
# enterovirus [2] = experiment: case report Example 3, treatment of chronic fatigue; type: in vivo, human
# Procedure: A person who had recurrent episodes of debilitating fatigue became totally incapacitated after approximately 17 years. The patient was treated with a combination of alpha and gamma interferon for six weeks with acceptable results. They went into remission but relapsed nine months later after developing a minor upper respiratory infection. They improved minimally after several months of bed rest, but was barely able to work six hours per day. They had brain fog, myalgia (7/10 pain) and was barely able to walk even 1-2 blocks.
# Three days after taking oxymatrine at a dose of 300 mg bid, the myalgia intensified (10/10 pain), especially one hour after taking the pills. One week after starting oxymatrine, routine laboratory tests including CBC, chemistry panel and creatine phosphokinase (CPK) were normal. They continued having significant fatigue and myalgia for the next three weeks, but the symptoms resolved one week after stopping the medication. Mild increase in myalgia recurred three days after resuming oxymatrine, but resolved after continuing the medication for the next two weeks. The patient felt well at the end of three months with minimal discomfort in a few muscle groups.
# Severe myalgia recurred after resuming vigorous exercise for three weeks while taking oxymatrine. They had to stop exercise for the two months allowing cessation of myalgia. After taking oxymatrine for six months, the patient felt well. Over the next six months after stopping the medication, the patient continuously performed heavy physical activities without significant difficulty. After developing another episode of upper respiratory symptoms, their symptoms relapsed. They have resumed oxymatrine but experienced increasing myalgia as the fatigue improved.
# enterovirus [3] = experiment: case report Example 12, treating diarrhea; type: in vivo, human
# Text: A person developed severe watery diarrhea for two months. Stool evaluation was unremarkable. […] They continued to do well for six months on the medication.
# enterovirus [4] = experiment: case report Example 5, treatment of chronic fatigue; type: in vivo, human
# Procedure: A person developed debilitating fatigue, sore throat, oral ulcers, vertigo, headaches and cognitive dysfunction two months after having a flu-like illness. […] Approximately four years later, the patient started taking oxymatrine. After an initial increase of gastrointestinal symptoms for the first two weeks, the patient tolerated 500 mg per day of oxymatrine.
# The symptoms continued for two weeks and resolved after stopping oxymatrine. […] They continued to improve for 12 months after taking the medication.
# hepatitis B = conditions: oral, after one year of treatment; comparable to interferon-α injection; cited from earlier work
# [5] = test system: varicella-zoster virus (VZV); experiment: case report Example 9, chronic recurrent varicella-zoster virus infection (shingles); type: in vivo, human; conditions: 200 mg bid
# Procedure: A person developed recurrent shingles after multiple episodes of sinus infections and sinus surgeries. They also had chronic indigestion and nausea. Fatigue became so severe that they were bedridden for several years.
# Coxsackievirus B4 antibody was 1:320. […] The patient was started on oxymatrine 200 mg bid.
# enterovirus protein = experiment: immunoperoxidase staining of stomach biopsy before and after oxymatrine; type: in vivo, human; conditions: one patient (case 5), after taking oxymatrine for 6 months, correlated with symptomatic improvement
# Text: FIG. 2 illustrates immunoperoxidase staining for enterovirus protein in a stomach biopsy before oxymatrine therapy for one patient. […] The decrease in viral protein correlated with significant symptomatic improvement.
# enterovirus [6] = experiment: case report Example 4, treatment of chronic fatigue; type: in vivo, human
# Procedure: A person with a known history of frequent respiratory infections and vasovagal syncope developed respiratory infection, which was followed by bedridden fatigue. Enteroviral protein was detected in the stomach biopsy consistent with chronic enterovirus infection. […] After vigorous exercise, they would still have relapses of bedridden fatigue for one day but continued to work 10-12 hours per day for the next 12 months, walking two miles per day. Laboratory tests were normal while on therapy.
# coxsackievirus B = conditions: in vitro; mechanism not defined; cited from earlier work
# [7] = test system: Coxsackie B virus (CBV) 3, CVB4 and echovirus 9; experiment: case report Example 2, treatment of chronic fatigue; type: in vivo, human
# Procedure: A person with episodes of diarrhea while traveling to Tonga developed severe respiratory infection soon thereafter. The symptoms consisted of fevers to 105°F, night sweats, diffuse myalgia, tachycardia, fatigue, sinus congestion and cough, and unresponsiveness to antibiotics. The patient developed profound fatigue thereafter and went on total disability three months after the onset of symptoms. Initial Coxsackie B virus (CBV) 3, CVB4 and echovirus 9 antibody titers were 1:320, 1:160, 1:80 (normal <1:10), respectively.
# The patient could not work for the next 18 months. They were started on oxymatrine at 300 mg twice a day (bid). After taking oxymatrine for two months, they were able to take short walks, but still exhausted after one hour of activity requiring five hour naps. At the end of three months of therapy, they started having fevers of 104-105°F for several days with marked decrease in diffuse myalgia. […] CVB3, CVB4 and echovirus antibody three months after therapy were 1:160, 1:160 and 1:20, respectively.
# [8] = test system: Mycobacterium avium complex (MAC); experiment: case report Example 8, Mycobacterium avium complex infection; type: in vivo, human
# Procedure: A person with known history of Mycobacterium avium complex (MAC) infection of the lung and bronchiectasis for several years was treated with clarithromycin, ethambutol, ciprofloxacin and rifabutin for about five years. As a result of persistent positive sputum culture for MAC, the patient was also treated with gamma interferon (an immune booster) without significant benefit. Intravenous amikacin was added following right middle and left lingula lobectomy. In spite of the above therapy, sputum and repeat bronchial washing obtained by bronchoscopy grew MAC within three weeks. A computed tomography scan of the chest remained unchanged except for the post-surgical changes.
# Sputum became clear in color then resolved. About two months after the start of oxymatrine, the patient had fevers, flu-like symptoms, increase in non-productive cough, bilateral uveitis and elevation of liver enzymes to 3.5 times normal values. The symptoms lasted two weeks and resolved after tapering dose of oxymatrine to 200 mg bid. Liver enzymes returned to normal within six weeks. […] The anti-MAC medications were discontinued after […] of oxymatrine therapy. The dose of oxymatrine was tapered to 100 mg tid at four and a half months of therapy and then stopped after six months of total therapy. The patient felt well at the six month follow-up.
smiles,measurement,setting,value
O=C1CCC[C@@H]2[C@H]3CCC[N+]4([O-])CCC[C@@H](CN12)[C@@H]34 (stereo partly drawn) [oxymatrine],symptoms,enterovirus [1]; 200 mg bid,promptly responded
same,activity,enterovirus [1]; after taking oxymatrine for ten days,resumed their normal activity
same,clinical outcome,enterovirus [2]; after taking oxymatrine for six months,felt well
same,clinical outcome,"enterovirus [2]; at the end of three months, minimal discomfort in a few muscle groups",felt well
same,"routine laboratory tests including CBC, chemistry panel and creatine phosphokinase (CPK)",enterovirus [2]; one week after starting oxymatrine,normal
same,myalgia (pain),"enterovirus [2]; three days after taking 300 mg bid, 7/10 before",10/10
same,diarrhea,enterovirus [3]; after starting oxymatrine,resolved within one week
same,effect of decrease of medication to half the dose,enterovirus [3]; resolved after increasing the dosage,relapse of the symptoms
same,clinical outcome,enterovirus [4]; three months after stopping oxymatrine,only had mild symptoms and was able to return to part-time work and regular exercise
same,adverse symptoms,"enterovirus [4]; two months after taking the medication, 500 mg per day, continued two weeks, resolved after stopping","severe diffuse ulcerations of the mouth mucosa, increasing headache, sinus congestion and severe myalgia"
same,overall cure rate,hepatitis B,about 40%
same,outbreaks of shingles,[5],less often and not as severe
same,clinical outcome,"[5]; three months, previously bedridden",went back to full-time work
same,viral protein by staining with enterovirus-specific monoclonal antibody (5 D8/1),enterovirus protein,significant reduction
same,clinical outcome,"enterovirus [6]; after taking the medication for six weeks, previously bedridden fatigue",returned to full-time work
same,tolerability,enterovirus [6]; in vivo,tolerated well without any adverse reactions
same,laboratory tests,enterovirus [6]; while on therapy,normal
same,growth inhibition of coxsackievirus B in cell cultures,coxsackievirus B,growth inhibition
same,clinical outcome,"[7]; 300 mg bid for three months, three months after finishing the medication, previously on total disability",went back to full-time work
same,fevers,"[7]; at the end of three months of therapy, for several days, with marked decrease in diffuse myalgia",104-105 °F
same,laboratory studies including CBC and complete chemistry panel,"[7]; during therapy, calcium resolved after stopping hydrochlorothiazide",normal except mildly elevated calcium levels
same,relapse after therapy,[7]; in vivo,had not relapsed for at least one year after therapy
same,elevation of liver enzymes,"[8]; about two months after start, returned to normal within six weeks after tapering to 200 mg bid",3.5 times normal values
same,repeat bronchial washing culture,"[8]; bronchoscopy six months after onset of oxymatrine therapy, with anti-MAC medications",no growth of MAC
same,repeat computed tomography scans of the chest,[8]; in vivo,healing and calcifications of the lesions
same,tolerability,[8]; in vivo,tolerated well
same,night sweats,[8]; within two months,decreased from twice a week to once every two weeks
